In brackets after ≈: the same amount, converted by molar mass.
Experiments:
physchem = conditions: water
Excerpt: Une deuxième solution consiste à diminuer la solubilité du produit.

ERWINIA AMYLOVORA = test: Minimal inhibitory concentration (CMI) at varying pH; format: cell-based
Excerpt: (§1) Une autre conséquence inattendue de la valeur du pH est l'influence sur l'activité antibactérienne elle-même. Selon l'invention, c'est en milieu pH acide que l'on obtient la meilleure activité antibactérienne.
(§2) A titre d'exemple, on donne ci-après les concentrations minimales inhibitrices (CMI) obtenues vis-à-vis de quelques bactéries phytopathogènes en faisant varier le pH.

XANTHOMONAS PRUNI = test: as above; format: cell-based
Excerpt: as §1, §2

XANTHOMONAS CYNARAE = test: as above; format: cell-based
Excerpt: as §1, §2

PSEUDOMONAS VIRIDIFLAVA = test: as above; format: cell-based
Excerpt: as §1, §2

PSEUDOMONAS SYRINGAE = test: as above; format: cell-based
Excerpt: as §1, §2

CC1CCc2cc(F)cc3c(=O)c(C(=O)O)cn1c23 (centres unmarked) [Fluméquine, acide [1H-5H] dihydro-6,7 fluoro-9 méthyl-5 oxo-1 benzo [i,j] quinolizine carboxylique-2]
solubility (physchem; pH 5, water): ~100 µg/mL (≈ 383 µM)
solubility (physchem; pH 7, water): 300 to 400 µg/mL (≈ 1150 to 1530 µM)
concentrations minimales inhibitrices (CMI) (ERWINIA AMYLOVORA; pH 5): 0,1
concentrations minimales inhibitrices (CMI) (ERWINIA AMYLOVORA; pH 6,5): 0,5
concentrations minimales inhibitrices (CMI) (ERWINIA AMYLOVORA; pH 7,4): 1
concentrations minimales inhibitrices (CMI) (XANTHOMONAS PRUNI; pH 5): 0,25
concentrations minimales inhibitrices (CMI) (XANTHOMONAS PRUNI; pH 6,5): 1
concentrations minimales inhibitrices (CMI) (XANTHOMONAS PRUNI; pH 7,4): 2
concentrations minimales inhibitrices (CMI) (XANTHOMONAS CYNARAE; pH 5): 0,5
concentrations minimales inhibitrices (CMI) (XANTHOMONAS CYNARAE; pH 6,5): 1
concentrations minimales inhibitrices (CMI) (XANTHOMONAS CYNARAE; pH 7,4): 2
concentrations minimales inhibitrices (CMI) (PSEUDOMONAS VIRIDIFLAVA; pH 5): 1
concentrations minimales inhibitrices (CMI) (PSEUDOMONAS VIRIDIFLAVA; pH 6,5): 2
concentrations minimales inhibitrices (CMI) (PSEUDOMONAS VIRIDIFLAVA; pH 7,4): 4
concentrations minimales inhibitrices (CMI) (PSEUDOMONAS SYRINGAE; pH 5): 0,5
concentrations minimales inhibitrices (CMI) (PSEUDOMONAS SYRINGAE; pH 6,5): 2
concentrations minimales inhibitrices (CMI) (PSEUDOMONAS SYRINGAE; pH 7,4): 4

From patent EP0236230A1, “Aqueous suspensions containing at least one compound chosen from 6,7-dihydrobenzoquinolizine carboxylic acids, and their use in the treatment of plants” (RIKER LABORATORIES, INC., priority 1986, dated 1987)
